Molecular target: T1, Tyrosine-protein phosphatase non-receptor type 22 (Homo sapiens, UniProt Q9Y2R2)
T1 sequence (Q9Y2R2 whole entry): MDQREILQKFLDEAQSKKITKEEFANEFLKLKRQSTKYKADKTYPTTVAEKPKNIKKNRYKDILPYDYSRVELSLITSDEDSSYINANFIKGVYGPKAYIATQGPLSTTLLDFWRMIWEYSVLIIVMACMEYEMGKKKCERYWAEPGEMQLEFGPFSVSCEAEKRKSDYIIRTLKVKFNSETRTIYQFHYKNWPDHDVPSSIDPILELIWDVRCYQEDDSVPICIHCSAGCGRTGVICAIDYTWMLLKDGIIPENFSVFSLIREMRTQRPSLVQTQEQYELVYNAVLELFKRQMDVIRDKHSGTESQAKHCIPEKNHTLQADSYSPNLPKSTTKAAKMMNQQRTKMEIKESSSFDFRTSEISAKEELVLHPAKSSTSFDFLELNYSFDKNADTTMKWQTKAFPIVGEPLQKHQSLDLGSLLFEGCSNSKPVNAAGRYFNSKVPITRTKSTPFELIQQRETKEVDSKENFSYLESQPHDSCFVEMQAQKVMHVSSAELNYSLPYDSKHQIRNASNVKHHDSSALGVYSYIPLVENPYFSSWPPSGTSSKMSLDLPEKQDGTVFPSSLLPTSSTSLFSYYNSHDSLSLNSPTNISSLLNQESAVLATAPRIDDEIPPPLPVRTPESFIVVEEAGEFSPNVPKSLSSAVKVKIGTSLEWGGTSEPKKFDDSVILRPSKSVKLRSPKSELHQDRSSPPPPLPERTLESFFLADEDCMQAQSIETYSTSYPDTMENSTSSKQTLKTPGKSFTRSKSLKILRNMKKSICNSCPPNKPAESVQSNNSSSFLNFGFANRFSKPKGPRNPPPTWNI
Experiment: Inhibition of lymphoid specific tyrosine phosphatase

IC50 [µM] | SMILES
> 44 | COC(=O)c1cc(-c2ccc(C=Nn3cc(O)[nH]c3=O)o2)ccc1O
> 44 | COC(=O)c1cc(-c2ccc(C=Nn3cc(O)[nH]c3=O)s2)ccc1O
> 44 | O=C(O)c1cc(-c2ccc(C=Nn3cc(O)[nH]c3=O)o2)ccc1O
> 44 | O=C(O)Cn1c(O)cn(N=Cc2ccc(-c3ccc(O)c(C(=O)O)c3)s2)c1=O
